What was measured:
Format in all cases: functional
Bos taurus [1] = species: Bos taurus; assay: Carboxymethylation of bovine brain tubulin pre-incubated with 86 mol compound per mol tubulin
Bos taurus [2] = species: Bos taurus; assay: Carboxymethylation of bovine brain tubulin pre-incubated with 34 mol compound per mol tubulin
Bos taurus [3] = species: Bos taurus; assay: Carboxymethylation of bovine brain tubulin pre-incubated with 69 mol compound per mol tubulin
Bos taurus [4] = species: Bos taurus; assay: Carboxymethylation of bovine brain tubulin pre-incubated with 17 mol compound per mol tubulin
Bos taurus [5] = species: Bos taurus; assay: Carboxymethylation of bovine brain tubulin pre-incubated with 8.6 mol compound per mol tubulin
Bos taurus [6] = species: Bos taurus; assay: Carboxymethylation of bovine brain tubulin pre-incubated with 0 mol compound per mol tubulin

Q: `CC1=CC(=O)C(=O)C2=C1O[C@@]1(C2)[C@@H](C)CC[C@@H]2[C@@]3(C)CC[C@H](O)C(C)(C)C3CC[C@]21C` (stereo partly specified) [STYPOLDIONE] was tested. Which “Ratio_[3H]:tubulin” value (Bos taurus [1]) did it give?
A: 4.3

Q: And the “Ratio_[3H]:tubulin” value (Bos taurus [2])?
A: 12

Q: And the “Ratio_[3H]:tubulin” value (Bos taurus [3])?
A: 4.8

Q: And the “Ratio_[3H]:tubulin” value (Bos taurus [4])?
A: 16

Q: And the “Ratio_[3H]:tubulin” value (Bos taurus [5])?
A: 22

Q: And the “Ratio_[3H]:tubulin” value (Bos taurus [6])?
A: 20

— ChEMBL document CHEMBL1123224, “Mechanism of action of the marine natural product stypoldione: evidence for reaction with sulfhydryl groups” (1986)
